Measurements from patent US6525001B1, “Substituted pyrimidine and pyridine herbicides” (Mid-American Commercialization Corporation, priority 1997, dated 2003).

Legend:
Assay type in all cases: in vivo
[1] = test system: bedstraw (Galium aparine); experiment: Test B pre-/postemergence; set-up: key: 0 is no effect; 10 is complete control; settings: for Bedstraw plant response rating: Preemergence
Source text: (§1) Seeds of bedstraw (Galium aparine), blackgrass (Alopecurus myosuroides), broadleaf signalgrass (Brachiaria decumbens), cocklebur (Xanthium strumarium), corn (Zea mays), crabgrass (Digitaria sanguinalis), giant foxtail (Setaria faberii), lambsquarters (Chenopodium album), momingglory (Ipomoea hederacea), pigweed (Amaranthus retroflexus), rape (Brassica napus), soybean (Glycine max), sugar beet (Beta vulgaris), velvetleaf (Abutilon theophrasti), wheat (Triticum aestivum), wild oat (Avena fatua) and purple nutsedge (Cyperus rotundus) tubers were planted and treated preemergence with test chemicals formulated in a non-phytotoxic solvent mixture which included a surfactant.
(§2) At the same time, these crop and weed species were also treated with postemergence applications of test chemicals formulated in the same manner. Plants ranged in height from 2 to 18 cm (1- to 4-leaf stage) for postemergence treatments. Plant species in the flood test consisted of rice (Oryza sativa), smallflower flatsedge (Cyperus difformis), duck salad (Heteranthera limosa) and bamyardgrass (Echinochloa crus-galli) grown to the 2-leaf stage for testing. Treated plants and controls were maintained in a greenhouse for twelve to sixteen days, after which all species were compared to controls and visually evaluated. Plant response ratings, summarized in Table B, are based on a scale of 0 to 10 where 0 is no effect and 10 is complete control. A dash (−) response means no test result.

[2] = test system: blackgrass (Alopecurus myosuroides); experiment: Test B pre-/postemergence; set-up: key: 0 is no effect; 10 is complete control; settings: for Blackgrass plant response rating: Preemergence
Source text: as §1, §2

[3] = test system: broadleaf signalgrass (Brachiaria decumbens); experiment: Test B pre-/postemergence; set-up: key: 0 is no effect; 10 is complete control; settings: for B. signalgrass plant response rating: Preemergence
Source text: as §1, §2

[4] = test system: cocklebur (Xanthium strumarium); experiment: Test B pre-/postemergence; set-up: key: 0 is no effect; 10 is complete control; settings: for Plant response rating, Cocklebur: Postemergence; for Cocklebur plant response rating: Preemergence
Source text: as §1, §2

corn (Zea mays) = experiment: Test B pre-/postemergence; set-up: key: 0 is no effect; 10 is complete control; settings: for Corn plant response rating: Preemergence
Source text: as §1, §2

[5] = test system: crabgrass (Digitaria sanguinalis); experiment: Test B pre-/postemergence; set-up: key: 0 is no effect; 10 is complete control; settings: for Crabgrass plant response rating: Preemergence
Source text: as §1, §2

[6] = test system: giant foxtail (Setaria faberii); experiment: Test B pre-/postemergence; set-up: key: 0 is no effect; 10 is complete control
Source text: as §1, §2

[7] = test system: momingglory (Ipomoea hederacea); experiment: Test B pre-/postemergence; set-up: key: 0 is no effect; 10 is complete control
Source text: as §1, §2

[8] = test system: pigweed (Amaranthus retroflexus); experiment: Test B pre-/postemergence; set-up: key: 0 is no effect; 10 is complete control
Source text: as §1, §2

[9] = test system: purple nutsedge (Cyperus rotundus); experiment: Test B pre-/postemergence; set-up: key: 0 is no effect; 10 is complete control
Source text: as §1, §2

rape (Brassica napus) = experiment: Test B pre-/postemergence; set-up: key: 0 is no effect; 10 is complete control
Source text: as §1, §2

soybean (Glycine max) = experiment: Test B pre-/postemergence; set-up: key: 0 is no effect; 10 is complete control
Source text: as §1, §2

[10] = test system: sugar beet (Beta vulgaris); experiment: Test B pre-/postemergence; set-up: key: 0 is no effect; 10 is complete control
Source text: as §1, §2

[11] = test system: velvetleaf (Abutilon theophrasti); experiment: Test B pre-/postemergence; set-up: key: 0 is no effect; 10 is complete control
Source text: as §1, §2

[12] = test system: wheat (Triticum aestivum); experiment: Test B pre-/postemergence; set-up: key: 0 is no effect; 10 is complete control
Source text: as §1, §2

wild oat (Avena fatua) = experiment: Test B pre-/postemergence; set-up: key: 0 is no effect; 10 is complete control
Source text: as §1, §2

[13] = test system: bamyardgrass (Echinochloa crus-galli); experiment: Test B flood test
In short: (§3)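 Each value is a visual injury score relative to controls, with 10 meaning complete control and 0 no effect. Evaluation took place twelve to sixteen days after the 2-leaf-stage plants were treated and kept in the greenhouse.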

[14] = test system: duck salad (Heteranthera limosa); experiment: Test B flood test
In short: as §3

rice (Oryza sativa) = experiment: Test B flood test
In short: as §3

[15] = test system: smallflower flatsedge (Cyperus difformis); experiment: Test B flood test
In short: as §3

[16] = Rate 250 g/ha, Postemergence (so in the source)
[17] = Rate 62 g/ha, Postemergence (flood test)
[18] = Rate 125 g/ha, Postemergence, flood test
[19] = Rate 250 g/ha, Postemergence (flood test species)
[20] = Rate 125 g/ha, Postemergence section (flood test species)

Cc1cnc(-c2ccc(Cl)cc2)nc1Cc1cccc(C(F)(F)F)c1 [Compound 28]
Plant response rating, Bedstraw ([1]; Rate 62 g/ha, Postemergence): 2
Bedstraw plant response rating ([1]; Rate 62 g/ha): 2
Plant response rating, Bedstraw ([1]; Rate 125 g/ha, Postemergence): 8
Bedstraw plant response rating ([1]; Rate 125 g/ha): 4
Plant response rating, Bedstraw ([1]; Rate 250 g/ha, Postemergence): 8
Plant response rating, Bedstraw [1, 16]: 8
Plant response rating, Blackgrass ([2]; Rate 62 g/ha, Postemergence): 4
Blackgrass plant response rating ([2]; Rate 62 g/ha): 2
Plant response rating, Blackgrass ([2]; Rate 125 g/ha, Postemergence): 5
Blackgrass plant response rating ([2]; Rate 125 g/ha): 5
Plant response rating, Blackgrass ([2]; Rate 250 g/ha, Postemergence): 8
Plant response rating, Blackgrass [2, 16]: 6
Plant response rating, B. signalgrass ([3]; Rate 62 g/ha, Postemergence): 4
B. signalgrass plant response rating ([3]; Rate 62 g/ha): 2
Plant response rating, B. signalgrass ([3]; Rate 125 g/ha, Postemergence): 5
B. signalgrass plant response rating ([3]; Rate 125 g/ha): 5
Plant response rating, B. signalgrass ([3]; Rate 250 g/ha, Postemergence): 9
Plant response rating, B. signalgrass ([3]; Rate 250 g/ha, Postemergence as printed in head r139 (second section for compounds 26-50)): 9
Plant response rating, Cocklebur ([4]; Rate 62 g/ha): 7
Cocklebur plant response rating ([4]; Rate 62 g/ha): 0
Plant response rating, Cocklebur ([4]; Rate 125 g/ha): 8
Cocklebur plant response rating ([4]; Rate 125 g/ha): 0
Plant response rating, Cocklebur ([4]; Rate 250 g/ha): 8
Plant response rating, Corn (corn (Zea mays); Rate 62 g/ha, Postemergence): 2
Corn plant response rating (corn (Zea mays); Rate 62 g/ha): 0
Plant response rating, Corn (corn (Zea mays); Rate 125 g/ha, Postemergence): 3
Corn plant response rating (corn (Zea mays); Rate 125 g/ha): 0
Plant response rating, Corn (corn (Zea mays); Rate 250 g/ha, Postemergence): 4
Plant response rating, Corn (corn (Zea mays); [16]): 1
Plant response rating, Crabgrass ([5]; Rate 62 g/ha, Postemergence): 3
Crabgrass plant response rating ([5]; Rate 62 g/ha): 2
Plant response rating, Crabgrass ([5]; Rate 125 g/ha, Postemergence): 9
Crabgrass plant response rating ([5]; Rate 125 g/ha): 4
Plant response rating, Crabgrass ([5]; Rate 250 g/ha, Postemergence): 10
Plant response rating, Crabgrass [5, 16]: 10
Plant response rating, Giant foxtail ([6]; Rate 62 g/ha, Postemergence): 3
Giant foxtail plant response rating ([6]; Rate 62 g/ha, Preemergence): 4
Giant foxtail plant response rating ([6]; Rate 125 g/ha, Postemergence): 4
Giant foxtail plant response rating ([6]; Rate 125 g/ha, Preemergence): 9
Plant response rating, Giant foxtail ([6]; Rate 250 g/ha, Postemergence): 9
Plant response rating, Giant foxtail [6, 16]: 10
Plant response rating, Morningglory ([7]; Rate 62 g/ha, Postemergence): 3
Morningglory plant response rating ([7]; Rate 62 g/ha, Preemergence): 2
Morningglory plant response rating ([7]; Rate 125 g/ha, Postemergence): 3
Morningglory plant response rating ([7]; Rate 125 g/ha, Preemergence): 2
Plant response rating, Morningglory ([7]; Rate 250 g/ha, Postemergence): 3
Plant response rating, Morningglory [7, 16]: 3
Plant response rating, Redroot pigweed ([8]; Rate 62 g/ha, Postemergence): 8
Redroot pigweed plant response rating ([8]; Rate 62 g/ha, Preemergence): 5
Redroot pigweed plant response rating ([8]; Rate 125 g/ha, Postemergence): 9
Redroot pigweed plant response rating ([8]; Rate 125 g/ha, Preemergence): 6
Plant response rating, Redroot pigweed ([8]; Rate 250 g/ha, Postemergence): 10
Plant response rating, Redroot pigweed [8, 16]: 7
Plant response rating, Nutsedge ([9]; Rate 62 g/ha, Postemergence): 0
Nutsedge plant response rating ([9]; Rate 62 g/ha, Preemergence): 0
Nutsedge plant response rating ([9]; Rate 125 g/ha, Postemergence): 3
Nutsedge plant response rating ([9]; Rate 125 g/ha, Preemergence): 0
Plant response rating, Nutsedge [9, 16]: 0
Plant response rating, Rape (rape (Brassica napus); Rate 62 g/ha, Postemergence): 9
Rape plant response rating (rape (Brassica napus); Rate 62 g/ha, Preemergence): 1
Rape plant response rating (rape (Brassica napus); Rate 125 g/ha, Postemergence): 9
Rape plant response rating (rape (Brassica napus); Rate 125 g/ha, Preemergence): 2
Plant response rating, Rape (rape (Brassica napus); Rate 250 g/ha, Postemergence): 10
Plant response rating, Rape (rape (Brassica napus); [16]): 4
Plant response rating, Soybean (soybean (Glycine max); Rate 62 g/ha, Postemergence): 4
Soybean plant response rating (soybean (Glycine max); Rate 62 g/ha, Preemergence): 0
Soybean plant response rating (soybean (Glycine max); Rate 125 g/ha, Postemergence): 7
Plant response rating, Soybean (soybean (Glycine max); Rate 125 g/ha, Preemergence): 0
Plant response rating, Soybean (soybean (Glycine max); Rate 250 g/ha, Postemergence): 7
Plant response rating, Soybean (soybean (Glycine max); [16]): 1
Plant response rating, Sugarbeets ([10]; Rate 62 g/ha, Postemergence): 9
Sugarbeets plant response rating ([10]; Rate 62 g/ha, Preemergence): 0
Sugarbeets plant response rating ([10]; Rate 125 g/ha, Postemergence): 9
Plant response rating, Sugarbeets ([10]; Rate 125 g/ha, Preemergence): 2
Plant response rating, Sugarbeets ([10]; Rate 250 g/ha, Postemergence): 10
Plant response rating, Sugarbeets [10, 16]: 3
Plant response rating, Velvetleaf ([11]; Rate 62 g/ha, Postemergence): 3
Velvetleaf plant response rating ([11]; Rate 62 g/ha, Preemergence): 1
Velvetleaf plant response rating ([11]; Rate 125 g/ha, Postemergence): 4
Plant response rating, Velvetleaf ([11]; Rate 125 g/ha, Preemergence): 1
Plant response rating, Velvetleaf ([11]; Rate 250 g/ha, Postemergence): 8
Plant response rating, Velvetleaf [11, 16]: 2
Wheat plant response rating ([12]; Rate 62 g/ha, Postemergence): 3
Wheat plant response rating ([12]; Rate 62 g/ha, Preemergence): 0
Wheat plant response rating ([12]; Rate 125 g/ha, Postemergence): 4
Plant response rating, Wheat ([12]; Rate 125 g/ha, Preemergence): 0
Plant response rating, Wheat ([12]; Rate 250 g/ha, Postemergence): 5
Plant response rating, Wheat [12, 16]: 0
Wild oats plant response rating (wild oat (Avena fatua); Rate 62 g/ha, Postemergence): 4
Wild oats plant response rating (wild oat (Avena fatua); Rate 62 g/ha, Preemergence): 3
Wild oats plant response rating (wild oat (Avena fatua); Rate 125 g/ha, Postemergence): 5
Plant response rating, Wild oats (wild oat (Avena fatua); Rate 125 g/ha, Preemergence): 3
Plant response rating, Wild oats (wild oat (Avena fatua); Rate 250 g/ha, Postemergence): 6
Plant response rating, Wild oats (wild oat (Avena fatua); [16]): 4
Plant response rating, Barnyardgrass [13, 17]: 3
Plant response rating, Barnyardgrass [13, 18]: 4
Plant response rating, Barnyardgrass [13, 19]: 5
Plant response rating, Ducksalad [14, 17]: 2
Plant response rating, Ducksalad [14, 18]: 3
Plant response rating, Ducksalad [14, 19]: 6
Plant response rating, Rice (rice (Oryza sativa); [17]): 2
Rice plant response rating (rice (Oryza sativa); [20]): 2
Plant response rating, Rice (rice (Oryza sativa); [19]): 3
Plant response rating, S. Flatsedge [15, 17]: 5
S. Flatsedge plant response rating [15, 20]: 8
Plant response rating, S. Flatsedge [15, 19]: 8
